Literature values as cited in patent US7521440B2, “Targeted oxidative therapeutic formulation” (Torquin, LLC, priority 2001, dated 2009).

Experiments:
[1] = test system: peroxide-sensitive E. coli; conditions: infused into the blood of infected rabbits
[2] = test system: E. coli; conditions: increasing peroxide concentration ex-vivo in rabbit or human blood

In the case of `OO` [hydrogen peroxide, Hydrogen peroxide], the bactericidal effect [1] is given as “no bactericidal effect” and the direct bactericidal activity [2] is given as “no evidence of direct bactericidal activity”.
